Laboratory results published in patent publication US5672710A, “Sulfides, sulfoxides and sulfones disubstituted with a tetrahydronaphthalenyl, chromanyl, thiochromanyl or tetrahydroquinolinyl and substituted phenyl or heteroaryl group, having retinoid-like biological activity” (priority 1995, dated 1997).
pEC50, pKd: −log10 of the molar value.

Tests used:
RXRα = target: T1, RXRα (Homo sapiens, UniProt P19793); assay: Holoreceptor transactivation assay, RXRα; assay type: cell-based; conditions: CV1 cells; for pEC50: 36 hours; for Emax: CV-1, relative to all trans retinoic acid, read-out: Transactivation Assay Efficacy (% of RA activity), RXRα
T1 construct: expressed in transfected cells; host or cells: CV1
T1 sequence (P19793 1-462): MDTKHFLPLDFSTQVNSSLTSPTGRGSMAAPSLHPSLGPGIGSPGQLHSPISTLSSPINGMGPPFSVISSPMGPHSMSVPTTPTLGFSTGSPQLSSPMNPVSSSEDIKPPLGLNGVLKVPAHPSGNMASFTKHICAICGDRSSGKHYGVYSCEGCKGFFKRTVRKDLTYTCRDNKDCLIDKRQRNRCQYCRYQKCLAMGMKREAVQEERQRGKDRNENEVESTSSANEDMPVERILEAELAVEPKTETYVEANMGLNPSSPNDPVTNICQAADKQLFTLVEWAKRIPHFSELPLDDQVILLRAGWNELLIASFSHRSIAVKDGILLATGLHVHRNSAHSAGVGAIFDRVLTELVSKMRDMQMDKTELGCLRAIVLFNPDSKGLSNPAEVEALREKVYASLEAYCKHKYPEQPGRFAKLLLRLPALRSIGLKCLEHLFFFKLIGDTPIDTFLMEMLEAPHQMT
Text: (§1) A holoreceptor transactivation assay and a ligand binding assay which measure the ability of the compounds of the invention to bind to the several retinoid receptor subtypes, respectively, are described in published PCT Application No. WO W093/11755 (particularly on pages 30-33 and 37-41) published on Jun. 24, 1993, the specification of which is also incorporated herein by reference. A description of the holoreceptor transactivation assay is also provided below.
(§2) CV1 cells (5,000 cells/well) were transfected with an RAR reporter plasmid MTV-TREp-LUC (50 ng) along with one of the […] expression vectors (10 ng) in an automated 96-well format by the calcium phosphate procedure of Heyman et al. Cell 68, 397-406. (8). For RXRα and RXR.GAMMA. transactivation assays, an RXR-responsive reporter plasmid CRBPII-tk-LUC (50 ng) along with the appropriate RXRexpression vectors (10 ng) was used substantially as described by Heyman et al. above, and Allegretto et al. J. Biol. Chem. 268, 26625-26633. For RXRβ transactivation assays, an RXR-responsive reporter plasmid CPRE-tk-LUC ([…]) along with RXRβ expression vector ([…]) was used as described in above. These reporters contain DRI elements from human CRBPII and certain DRI elements from promoter, respectively. (see Mangelsdorf et al. The Retinoids: Biology, Chemistry and Medicine, pp 319-349, Raven Press Ltd., New York and Heyman et al., cited above) (1, 8). A β-galactosidase (50 ng) expression vector was used as an internal control in the transfections to normalize for variations in transfection efficiency. The cells were transfected in triplicate for 6 hours, followed by incubation with retinoids for 36 hours, and the extracts were assayed for luciferase and β-galactosidase activities. The detailed experimental procedure for holoreceptor transactivations has been described in Heyman et al. above, and Allegretto et al. cited above. The results obtained in this assay in connection with examplary compounds in accordance with the present invention are expressed in EC50 numbers, as they are also in the chimeric receptor transactivation assay. The Heyman et al. Cell 68, 397-406, Allegretto et al. J. Biol. Chem. 268, 26625-26633, and Mangelsdorf et al. The Retinoids: Biology, Chemistry and Medicine, pp 319-349, Raven Press Ltd., New York, are expressly incorporated herein by reference. The results of ligand binding assay are expressed in Kd numbers. (See Cheng et al. Biochemical Pharmacology Vol. 22 pp 3099-3108, expressly incorporated herein by reference.)

RARα = target: T2, RARα (Homo sapiens, UniProt P10276); assay: Holoreceptor transactivation assay, RARα; assay type: cell-based; conditions: CV-1; CV1 cells; relative to all trans retinoic acid; read-out: Transactivation Assay Efficacy (% of RA activity), RARα
T2 construct: expressed in transfected cells; host or cells: CV1
T2 sequence (P10276 1-462): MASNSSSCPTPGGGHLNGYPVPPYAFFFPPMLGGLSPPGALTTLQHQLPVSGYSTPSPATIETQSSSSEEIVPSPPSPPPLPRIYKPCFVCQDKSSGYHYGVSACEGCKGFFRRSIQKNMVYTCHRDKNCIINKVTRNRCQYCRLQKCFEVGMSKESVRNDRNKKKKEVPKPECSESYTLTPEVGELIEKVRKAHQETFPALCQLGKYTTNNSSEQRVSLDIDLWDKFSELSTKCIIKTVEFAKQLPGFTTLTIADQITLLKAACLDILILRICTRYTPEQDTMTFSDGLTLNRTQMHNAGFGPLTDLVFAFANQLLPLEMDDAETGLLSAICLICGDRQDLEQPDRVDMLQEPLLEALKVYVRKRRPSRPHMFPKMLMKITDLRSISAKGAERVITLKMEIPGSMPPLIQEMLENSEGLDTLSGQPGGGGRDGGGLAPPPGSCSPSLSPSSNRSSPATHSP
Text: as §1, §2

RXRβ [1] = target: T3, RXRβ (Mus musculus, UniProt P28704); assay: Holoreceptor transactivation assay, RXRβ; assay type: cell-based; conditions: CV1 cells; for pEC50: 36 hours; for Emax: CV-1, relative to all trans retinoic acid, read-out: Transactivation Assay Efficacy (% of RA activity), RXRβ
T3 construct: expressed in transfected cells; host or cells: CV1
T3 sequence (P28704 1-520): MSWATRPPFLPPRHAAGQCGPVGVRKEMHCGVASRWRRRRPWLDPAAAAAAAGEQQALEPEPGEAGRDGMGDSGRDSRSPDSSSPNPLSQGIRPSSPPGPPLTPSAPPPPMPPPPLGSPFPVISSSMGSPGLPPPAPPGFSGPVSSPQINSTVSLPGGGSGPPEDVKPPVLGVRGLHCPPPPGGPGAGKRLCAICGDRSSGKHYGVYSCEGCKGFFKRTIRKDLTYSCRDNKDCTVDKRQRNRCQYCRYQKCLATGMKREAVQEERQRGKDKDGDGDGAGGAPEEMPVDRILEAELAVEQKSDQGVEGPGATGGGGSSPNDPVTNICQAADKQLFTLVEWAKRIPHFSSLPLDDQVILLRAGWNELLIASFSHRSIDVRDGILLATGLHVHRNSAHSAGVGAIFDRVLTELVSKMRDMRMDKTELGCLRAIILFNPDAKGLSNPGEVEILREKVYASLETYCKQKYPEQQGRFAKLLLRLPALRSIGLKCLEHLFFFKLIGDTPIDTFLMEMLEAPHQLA
Text: as §1, §2

RXRβ [2] = target: T3, RXRβ; assay: Ligand binding assay, RXRβ
Text: as §1, §2

Work on `Cc1cc2c(cc1S(=O)(=O)c1ccc(C(=O)O)cc1)C(C)(C)CCC2(C)C` [Compound 11, 4-(5,6,7,8-tetrahydro-3,5,5,8,8-pentamethyl-2-naphthylsulfonyl)benzoic acid] yielded a pEC50 (RXRα) of 5.55, an Emax (RXRα) of 55% and an Emax (RARα) of 2%.

For `Cc1cc2c(cc1Sc1ncc(C(=O)O)s1)C(C)(C)CCC2(C)C` [Compound 15, 2-(5,6,7,8-Tetrahydro-3,5,5,8,8-pentamethyl-2-naphthylthio)-5-thiazolecarboxylic acid], the pEC50 (RXRα) was 5.64, the Emax (RXRα) was 85% and the Emax (RARα) was 1%. For the same compound, the pEC50 (RXRβ [1]) was 5.89, the Emax (RXRβ [1]) was 117% and the pKd (RXRβ [2]) was less than 6.00.

`Cc1cc2c(cc1Sc1ccc(C(=O)O)cc1)C(C)(C)CCC2(C)C` [Compound 7, 4-(5,6,7,8-tetrahydro-3,5,5,8,8-pentamethyl-2-Daphthylthio)benzoic acid] gave a pEC50 (RXRα) of 6.55, an Emax (RXRα) of 81% and an Emax (RARα) of 3%. For the same compound, the pEC50 (RXRβ [1]) was 6.49, the Emax (RXRβ [1]) was 114% and the pKd (RXRβ [2]) was 6.52.

In the case of `Cc1cc2c(cc1[S+]([O-])c1ccc(C(=O)O)cc1)C(C)(C)CCC2(C)C` (stereo not shown) [Compound 9, 4-(5,6,7,8-tetrahydro-3,5,5,8,8-pentamethyl-2-naphthylsulfoxy)benzoic acid], the Emax (RXRα) was 17%, the Emax (RARα) was 5% and the pEC50 (RXRβ [1]) was 5.52. It also gave an Emax (RXRβ [1]) of 29% and a pKd (RXRβ [2]) of less than 6.00.

With `CC1(C)CCC(C)(C)c2cc(S(=O)(=O)c3ccc(C(=O)O)cc3)ccc21` [Compound 5, 4-(5,6,7,8-tetrahydro-5,5,8,8-tetramethyl-2-naphthylsulfonyl)benzoic acid] the pEC50 (RXRα) was 5.52, the Emax (RXRα) was 32% and the Emax (RARα) was 10%. The Emax (RXRβ [1]) was 11% and the pKd (RXRβ [2]) was less than 6.00.

`CC1(C)CCC(C)(C)c2cc(Sc3ccc(C(=O)O)cc3)ccc21` [Compound 2] was tested, and the Emax (RXRα) was 51%, the Emax (RARα) was 3% and the pEC50 (RXRβ [1]) was 5.80. It also gave an Emax (RXRβ [1]) of 80% and a pKd (RXRβ [2]) of less than 6.00.

Compound `Cc1cc2c(cc1Sc1ccc(C(=O)O)cn1)C(C)(C)CCC2(C)C` [Compound 13] has a pEC50 (RXRα) of 7.27, an Emax (RXRα) of 91% and an Emax (RARα) of 1%. The pKd (RXRβ [2]) was 7.24.
